For 5 compounds, IC50 results are on record in BindingDB's records for doi:10.1016/j.bmcl.2017.10.036 (Williams College, 2017).

The target in the test is T1, Histidine kinase (Caulobacter vibrioides, UniProt Q9X688).
T1 sequence (Q9X688 whole entry): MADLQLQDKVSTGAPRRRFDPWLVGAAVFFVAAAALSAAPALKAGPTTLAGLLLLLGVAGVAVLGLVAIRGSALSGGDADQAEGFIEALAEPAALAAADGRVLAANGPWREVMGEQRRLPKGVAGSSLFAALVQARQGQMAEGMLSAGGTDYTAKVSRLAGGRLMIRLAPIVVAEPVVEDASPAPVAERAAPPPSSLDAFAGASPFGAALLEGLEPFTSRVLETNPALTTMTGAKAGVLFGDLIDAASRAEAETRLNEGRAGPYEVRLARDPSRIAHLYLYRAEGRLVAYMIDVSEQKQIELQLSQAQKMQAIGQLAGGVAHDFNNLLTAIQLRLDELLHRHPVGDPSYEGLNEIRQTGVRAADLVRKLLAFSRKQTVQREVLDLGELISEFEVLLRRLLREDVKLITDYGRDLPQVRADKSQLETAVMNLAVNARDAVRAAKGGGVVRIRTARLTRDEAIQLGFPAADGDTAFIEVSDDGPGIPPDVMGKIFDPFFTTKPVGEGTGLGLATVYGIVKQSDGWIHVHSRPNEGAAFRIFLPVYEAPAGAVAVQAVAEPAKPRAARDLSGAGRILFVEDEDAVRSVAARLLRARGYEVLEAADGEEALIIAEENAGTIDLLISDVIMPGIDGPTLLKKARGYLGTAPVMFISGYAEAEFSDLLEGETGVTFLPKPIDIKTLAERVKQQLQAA
The test can be described thus: Inhibition of recombinant Caulobacter vibrioides cell cycle histidine kinase CckA deltaTM mutant DHp domain (70 to 691 residues) expressed in Escherichia coli in presence of varying levels of ATP measured every 60 secs for 2 hrs by PK/LDH enzyme coupled assay.
As usually defined, the IC50 is the concentration that gives 50% inhibition. In the case of `Oc1cc(O)c(-c2n[nH]cc2-c2ccc3c(c2)OCCO3)cc1Cl`, the IC50 is 32.3 µM.

Consider `COc1ccc(-c2c(-c3cc(Cl)c(O)cc3O)n[nH]c2C)cc1`, for which the IC50 came to 12.3 µM.

Regarding `CCc1cc(-c2n[nH]c(C)c2-c2ccc3c(c2)OCCO3)c(O)cc1O`, the half-maximal inhibitory concentration (IC50) is 28 µM.

For the compound `Cc1[nH]nc(-c2cc(Cl)c(O)cc2O)c1-c1ccc2c(c1)OCCO2` [4-chloro-6-[4-(2,3-dihydro-1,4-benzodioxin-6-yl)-5-methyl-1H-pyrazol-3-yl]benzene-1,3-diol], the IC50 is 11.2 µM.

With `CCNC(=O)c1noc(-c2cc(C(C)C)c(O)cc2O)c1-c1ccc(CN2CCOCC2)cc1` [5-[2,4-dihydroxy-5-(propan-2-yl)phenyl]-N-ethyl-4-[4-(morpholin-4-ylmethyl)phenyl]-1,2-oxazole-3-carboxamide], the IC50 is 7.3 µM.
